IC50 data for 24 molecules are collected here from patent US8629168B2, “Benzoxazoles and oxazolopyridines being useful as janus kinases inhibitors” (priority 2006, dated 2014).

This experiment deals with T1, GST-JAK2(808-1132) (Homo sapiens, UniProt O60674).
T1 construct: GST-JAK2(808-1132) is purchased from Invitrogen; purchased Invitrogen (Carlsbad, USA) #4288
T1 sequence (O60674 808-1132): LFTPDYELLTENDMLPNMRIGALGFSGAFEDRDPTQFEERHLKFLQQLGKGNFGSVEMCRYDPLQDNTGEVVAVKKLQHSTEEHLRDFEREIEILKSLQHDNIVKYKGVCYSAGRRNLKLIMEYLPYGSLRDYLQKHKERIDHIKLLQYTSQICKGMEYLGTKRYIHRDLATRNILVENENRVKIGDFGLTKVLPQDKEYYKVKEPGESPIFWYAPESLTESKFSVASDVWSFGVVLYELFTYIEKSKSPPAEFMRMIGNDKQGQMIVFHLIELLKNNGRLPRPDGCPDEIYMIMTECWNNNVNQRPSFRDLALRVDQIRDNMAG
The experiment can be described thus: EPK JAK/TYK-kinase family profiling assay (Caliper mobility shift), JAK2. It is filed as biochemical. Particulars: Caliper mobility shift assay of Example 187, 20 μM ATP, read-out: IC50 with Test in present Example. An excerpt: All four kinases of the JAK/TYK-kinase family are used as purified recombinant GST-fusion proteins, containing the active kinase domains. GST-JAK1(866-1154), GST-JAK3(811-1124), and GST-TYK2(888-1187) are expressed and purified by affinity chromatography. GST-JAK2(808-1132) is purchased from Invitrogen (Carlsbad, USA, #4288).
The kinase assays are based on the Caliper mobility shift assay using the LabChip 3000 systems. This technology is similar to capillary electrophoresis and uses charge driven separation of substrate and product in a microfluidic chip.
All kinase reactions are performed in 384 well microtiter plates in a total reaction volume of 18 μl. The assay plates are prepared with 0.1 μl per well of test compound in the appropriate test concentration, as described under the section “preparation of compound dilutions”. The reactions are started by combining 9 μl of substrate mix (consisting of peptide and ATP) with 9 μl of kinase dilution. The reactions are incubated for 60 minutes at 30° C. and stopped by adding 70 μl of stop buffer (100 mM Hepes, 5% DMSO, 0.1% Coating reagent, 10 mM EDTA, 0.015% Brij 35).
Fluorescently labeled synthetic peptides are used as substrates in all reactions. […] Specific assay conditions are described in Table 1:
The terminated reactions are transferred to a Caliper LabChip 3000 reader (Caliper Life Sciences, Mountain View, Calif., USA) and the turnover of each reaction is measured by determining the substrate/product ratio.
Test compounds are dissolved in DMSO (10 mM) and transferred into 1.4 mL flat bottom or V-shaped Matrix tubes carrying a unique 2D matrix chip by individual compound hubs. The numbers of these chips are distinctively linked to the individual compound identification numbers. The stock solutions are stored at −20° C. if not used immediately. For the test procedure the vials are defrosted and identified by a scanner whereby a working sheet is generated that guides the subsequent working steps.
Compound dilutions are made in 96 well plates. This format enabled the assay of maximally 40 individual test compounds at 8 concentrations (single points) including 4 reference compounds. The dilution protocol includes the production of pre-dilution plates, master plates and assay plates:
Pre-dilution plates: 96 polypropylene well plates are used as pre-dilution plates. A total of 4 pre-dilution plates are prepared including 10 test compounds each on the plate positions A1-A10, one standard compound at A11 and one DMSO control at A12. All dilution steps are done on a Hamilton STAR robot (Hamilton, Co., Reno, Nev., USA).
Master plates: 100 μL of individual compound dilutions including standard compound and controls of the 4 “pre-dilution plates” are transferred into a 384 “master plate” including the following concentrations 1,820, […], 182, 54.6, 18.2, 5.46, 1.82 and 0.546 μM, respectively in 90% of DMSO.
Assay plates: Identical assay plates are then prepared by pipetting 100 nL each of compound dilutions of the master plates into 384-well “assay plates”. In the following the compounds are mixed with 9 μL of assays components plus 9 μL enzyme corresponding to a 1:181 dilution steps enabling the final concentration of 10, 3.0, 1.0, 0.3, 0.1, 0.03, 0.01 and 0.003 μM, respectively. The preparation of the master plates are handled by the Matrix PlateMate Plus robot (Thermo Fisher Scientific, Handforth, Cheshire, United Kingdom) and replication of assay plates by the HummingBird robot (Genomic Solutions, Inc., Ann Arbor, Mich., USA).
Broadly, the IC50 is the point on the concentration scale where inhibition reaches its midpoint. With `Cc1cc(Nc2nc3cccc(-c4ccc(CN5CCOCC5)c(F)c4)c3o2)ccc1C(=O)N(C)C` [Example 64, 4-[7-(3-Fluoro-4-morpholin-4-ylmethyl-phenyl)-benzooxazol-2-ylamino]-2,N,N-trimethyl-benzamide], the IC50 amounted to 4.2 nM.

As to `Cc1cc(Nc2nc3cccc(-c4cc(F)c(CN5CCS(=O)(=O)CC5)c(F)c4)c3o2)ccc1C(=O)N(C)C` [Example 65, 4-{7-[4-(1,1-Dioxo-thiomorpholin-4-ylmethyl)-3,5-difluoro-phenyl]-benzooxazol-2-ylamino}-2,N,N-trimethyl-benzamide], the 50% inhibitory concentration (IC50) was determined as 8.25 nM.

With `COCCN1CCN(c2ccc(Nc3nc4cccc(-c5ccc(C(=O)N6CCOCC6)c(C)c5)c4o3)cc2C)CC1` [Example 66, [4-(2-{4-[4-(2-Methoxy-ethyl)-piperazin-1-yl]-3-methyl-phenylamino}-benzooxazol-7-yl)-2-methyl-phenyl]-morpholin-4-yl-methanone], the IC50 came to 6.45 nM.

`Cc1cc(Nc2nc3cccc(-c4ccc(CN5CCOCC5)c(F)c4)c3o2)ccc1C(=O)N1CCCC1` [Example 67, {4-[7-(3-Fluoro-4-morpholin-4-ylmethyl-phenyl)-benzooxazol-2-ylamino]-2-methyl-phenyl}-pyrrolidin-1-yl-methanone]: the IC50 worked out at 14 nM.

With `Cc1cc(Nc2nc3cccc(-c4cc(F)c(CN5CCOCC5)c(F)c4)c3o2)ccc1C(=O)N(C)C` [Example 68, 4-[7-(3,5-Difluoro-4-morpholin-4-ylmethyl-phenyl)-benzooxazol-2-ylamino]-2,N,N-trimethyl-benzamide], the 50% inhibitory concentration (IC50) was 19 nM.

Take `Cc1cc(Nc2nc3cccc(-c4ccc(C(=O)N5CCOCC5)cc4)c3o2)ccc1C(=O)N(C)C` [Example 69, 2,N,N-Trimethyl-4-{7-[4-(morpholine-4-carbonyl)-phenyl]-benzooxazol-2-ylamino}-benzamide]: the IC50 worked out at 7.9 nM.

Regarding `Cc1cc(Nc2nc3cccc(-c4ccc(CC(=O)N5CCOCC5)cc4)c3o2)ccc1C(=O)N(C)C` [Example 70, 2,N,N-Trimethyl-4-{7-[4-(2-morpholin-4-yl-2-oxo-ethyl)-phenyl]-benzooxazol-2-ylamino}-benzamide], the IC50 came to 6.2 nM.

For `CN(C)C(=O)c1ccc(Nc2nc3cccc(-c4ccc(CS(C)(=O)=O)cc4)c3o2)cc1` [Example 71, 4-[7-(4-Methanesulfonylmethyl-phenyl)-benzooxazol-2-ylamino]-N,N-dimethyl-benzamide], the IC50 amounted to 15 nM.

For the molecule `Cc1cc(Nc2nc3cccc(-c4ccc(CC(=O)N5CCOCC5)cc4)c3o2)ccc1C(=O)N1CCN(C)CC1` [Example 72, 2-(4-{2-[3-Methyl-4-(4-methyl-piperazine-1-carbonyl)-phenylamino]-benzooxazol-7-yl}-phenyl)-1-morpholin-4-yl-ethanone], the half-maximal inhibitory concentration (IC50) stood at 17 nM.

For the molecule `Cc1cc(Nc2nc3cccc(-c4ccc(CC(=O)N5CCOCC5)c(F)c4)c3o2)ccc1C(=O)N1CCN(C)CC1` [Example 73, 2-(2-Fluoro-4-{2-[3-methyl-4-(4-methyl-piperazine-1-carbonyl)-phenylamino]-benzooxazol-7-yl}-phenyl)-1-morpholin-4-yl-ethanone], the IC50 is 5.15 nM.

As for `CN1CCN(c2ccc(Nc3nc4cccc(-c5ccc(CC(=O)N6CCOCC6)cc5)c4o3)cc2)CC1` [Example 74, 2-(4-{2-[4-(4-Methyl-piperazin-1-yl)-phenylamino]-benzooxazol-7-yl}-phenyl)-1-morpholin-4-yl-ethanone], the concentration for half-maximal inhibition (IC50) was determined as 5 nM.

For the molecule `CN1CCN(c2ccc(Nc3nc4cccc(-c5ccc(C(=O)N6CCOCC6)c(F)c5)c4o3)cc2)CC1` [Example 75, (2-Fluoro-4-{2-[4-(4-methyl-piperazin-1-yl)-phenylamino]-benzooxazol-7-yl}-phenyl)-morpholin-4-yl-methanone], the 50% inhibitory concentration (IC50) worked out at 6.5 nM.

`Cc1cc(Nc2nc3cccc(-c4ccc(C(=O)N5CCOCC5)cc4F)c3o2)ccc1C(=O)N(C)C` [Example 76, 4-{7-[2-Fluoro-4-(morpholine-4-carbonyl)-phenyl]-benzooxazol-2-ylamino}-2,N,N-trimethyl-benzamide]: the IC50 amounted to 13 nM.

As to `Cc1cc(Nc2nc3cccc(-c4ccc(CC(=O)N5CCS(=O)(=O)CC5)cc4)c3o2)ccc1C(=O)N(C)C` [Example 77, 4-(7-{4-[2-(1,1-Dioxo-1lambda*6*-thiomorpholin-4-yl)-2-oxo-ethyl]-phenyl}-benzooxazol-2-ylamino)-2, N,N-trimethyl-benzamide], the concentration for half-maximal inhibition (IC50) came to 3.3 nM.

For `Cc1cc(Nc2nc3cccc(-c4ccc(C(=O)N5CCOCC5)c(F)c4)c3o2)ccc1C(=O)N(C)C` [Example 78, 4-{7-[3-Fluoro-4-(morpholine-4-carbonyl)-phenyl]-benzooxazol-2-ylamino}-2, N,N-trimethyl-benzamide], the IC50 amounted to 4.5 nM.

Take `Cc1cc(Nc2nc3cccc(-c4ccc(CN5CCS(=O)(=O)CC5)cc4)c3o2)ccc1C(=O)N(C)C` [Example 79, 4-{7-[4-(1,1-Dioxo-1lambda*6*-thiomorpholin-4-ylmethyl)-phenyl]-benzooxazol-2-ylamino}-2,N,N-trimethyl-benzamide]: the concentration for half-maximal inhibition (IC50) was < 3 nM.

Regarding `CN1CCN(c2ccc(Nc3nc4cccc(-c5ccc(C(=O)N6CCS(=O)(=O)CC6)c(F)c5)c4o3)cc2)CC1` [Example 80, (1,1-Dioxo-1lambda*6*-thiomorpholin-4-yl)-(2-fluoro-4-{2-[4-(4-methyl-piperazin-1-yl)-phenylamino]-benzooxazol-7-yl}-phenyl)-methanone], the IC50 amounted to 6.2 nM.

With `Cc1cc(Nc2nc3cccc(-c4ccc(C[S+](C)[O-])cc4)c3o2)ccc1C(=O)N(C)C` (stereo not drawn) [Example 81, 4-[7-(4-Methanesulfinylmethyl-phenyl)-benzooxazol-2-ylamino]-2,N,N-trimethyl-benzamide], the IC50 was determined as 17 nM.

For `Cc1cc(-c2cccc3nc(Nc4ccc(N5CCN(C)CC5)cc4)oc23)ccc1C(=O)N1CCOCC1` [Example 82, (2-Methyl-4-{2-[4-(4-methyl-piperazin-1-yl)-phenylamino]-benzooxazol-7-yl}-phenyl)-morpholin-4-yl-methanone], the IC50 is 4.8 nM.

As to `Cc1cc(Nc2nc3cccc(-c4ccc(CC(=O)N5CCS(=O)(=O)CC5)c(F)c4)c3o2)ccc1C(=O)N(C)C` [Example 83, 4-(7-{4-[2-(1,1-Dioxo-1lambda*6*-thiomorpholin-4-yl)-2-oxo-ethyl]-3-fluoro-phenyl}-benzooxazol-2-ylamino)-2,N,N-trimethyl-benzamide], the IC50 is < 3 nM.

Turning to `Cc1cc(Nc2nc3cccc(-c4ccc(CN5CCS(=O)(=O)CC5)c(F)c4)c3o2)ccc1C(=O)N(C)C` [Example 84, 4-{7-[4-(1,1-Dioxo-1lambda*6*-thiomorpholin-4-ylmethyl)-3-fluoro-phenyl]-benzooxazol-2-ylamino}-2,N,N-trimethyl-benzamide], the IC50 is < 3 nM.

Take `Cc1cc(Nc2nc3cccc(-c4ccc(C(=O)N5CCOCC5)c(C)c4)c3o2)ccc1C(=O)N(C)C` [Example 85, 2,N,N-Trimethyl-4-{7-[3-methyl-4-(morpholine-4-carbonyl)-phenyl]-benzooxazol-2-ylamino}-benzamide]: the half-maximal inhibitory concentration (IC50) was 9.3 nM.

Regarding `Cc1cc(Nc2nc3cccc(-c4ccc(CN5CCOCC5)c(C(F)(F)F)c4)c3o2)ccc1C(=O)N(C)C` [Example 86, 2,N,N-Trimethyl-4-[7-(4-morpholin-4-ylmethyl-3-trifluoromethyl-phenyl)-benzooxazol-2-ylamino]-benzamide], the IC50 is 79 nM.

Consider `CCN1CCN(c2ccc(Nc3nc4cccc(-c5ccc(CN6CCOCC6)c(F)c5)c4o3)cc2C)CC1` [Example 87, [4-(4-Ethyl-piperazin-1-yl)-3-methyl-phenyl]-[7-(3-fluoro-4-morpholin-4-ylmethyl-phenyl)-benzooxazol-2-yl]-amine], for which the IC50 was determined as 4.8 nM.
